Test results: US7592336B2, “Hepatitis C virus inhibitors” (Bristol-Myers Squibb Company, priority 2005, dated 2009)

Legend:
[1] = biological target: T1, HCV NS3/4A protease complex, BMS strain (UniProt P27958, species not given/STRAIN_BMS); experiment: FRET peptide assay to monitor HCV NS3/4A proteolytic activity (BMS strain); type: biochemical, HCV genotype 1a; conditions: NS3/4A BMS strain; read-out: Activity Range (IC50)
T1 construct: said of H77 and J4L6S, not expressly of BMS; fused on or other part: A three-lysine solubilising tail at the NS4A C-terminus and purification on Ni-NTA are described for the H77 and J4L6S constructs
Source text: HCV NS3 protease complexes, derived from the BMS strain, H77 strain or J4L6S strain, were generated, as described below. These purified recombinant proteins were generated for use in a homogeneous assay (see below) to provide an indication of how effective compounds of the present disclosure would be in inhibiting HCV NS3 proteolytic activity.
Serum from an HCV-infected patient was obtained from Dr. T. Wright, San Francisco Hospital. An engineered full-length cDNA (compliment deoxyribonucleic acid) template of the HCV genome (BMS strain) was constructed from DNA fragments obtained by reverse transcription-PCR (RT-PCR) of serum RNA (ribonucleic acid) and using primers selected on the basis of homology between other genotype 1a strains. From the determination of the entire genome sequence, a genotype 1a was assigned to the HCV isolate according to the classification of Simmonds et al. (See P Simmonds, K A Rose, S Graham, S W Chan, F McOmish, B C Dow, E A Follett, P L Yap and H Marsden, J. Clin. Microbiol., 31(6), 1493-1503 (1993)). […] The infectious clones, H77 (1a genotype) and J4L6S (1b genotype) were obtained from R. Purcell (NIH) and the sequences are published in Genbank (AAB67036, see Yanagi, M., Purcell, R. H., Emerson, S. U. and Bukh, J. Proc. Natl. Acad. Sci. U.S.A. 94(16), 8738-8743 (1997); AF054247, see Yanagi, M., St Claire, M., Shapiro, M., Emerson, S. U., Purcell, R. H. and Bukh, J, Virology 244 (1), 161-172. (1998)).
NS3/4A protease complex-containing fractions were pooled and loaded on a desalting column Superdex-S200 pre-equilibrated with buffer D (25 mM HEPES, pH 7.5, 20% glycerol, 300 mM NaCl, 0.2% Triton X-100, 10 mM βME). Sample was loaded at a flow rate of 1 mL/min. NS3/4A protease complex-containing fractions were pooled and concentrated to approximately 0.5 mg/ml. The purity of the NS3/4A protease complexes, derived from the BMS, H77 and J4L6S strains, were judged to be greater than 90% by SDS-PAGE and mass spectrometry analyses. The enzyme was stored at −80° C., thawed on ice and diluted prior to use in assay buffer.
The purpose of this in vitro assay was to measure the inhibition of HCV NS3 protease complexes, derived from the BMS strain, H77 strain or J4L6S strain, as described above, by compounds of the present disclosure. This assay provides an indication of how effective compounds of the present disclosure would be in inhibiting HCV NS3 proteolytic activity.
In order to monitor HCV NS3/4A protease activity, an NS3/4A peptide substrate was used. The substrate was RET S1 (Resonance Energy Transfer Depsipeptide Substrate; AnaSpec, Inc. cat #22991) (FRET peptide), described by Taliani et al. in Anal. Biochem. 240(2):60-67 (1996). The sequence of this peptide is loosely based on the NS4A/NS4B natural cleavage site for the HCV NS3 protease except there is an ester linkage rather than an amide bond at the cleavage site. The peptide also contains a fluorescence donor, EDANS, near one end of the peptide and an acceptor, DABCYL, near the other end. The fluorescence of the peptide is quenched by […] resonance energy transfer (RET) between the donor and the acceptor, but as the NS3 protease cleaves the peptide the products are released from RET quenching and the fluorescence of the donor becomes apparent.
The peptide substrate was incubated with one of the three recombinant NS3/4A protease complexes, in the absence or presence of a compound of the present disclosure. The inhibitory effects of a compound were determined by monitoring the formation of fluorescent reaction product in real time using a Cytofluor Series 4000.
Assay buffer: 50 mM HEPES, pH 7.5; 0.15M NaCl; 0.1% Triton; 15% Glycerol; 10 mM βME. Substrate: 2 μM final concentration (from a 2 mM stock solution in DMSO stored at −20° C.). HCV NS3/4A protease type 1a (1b), 2-3 nM final concentration (from a 5 μM stock solution in 25 mM HEPES, pH 7.5, 20% glycerol, 300 mM NaCl, 0.2% Triton-X100, 10 mM βME). […]

[2] = system: HCV replicon in HUH-7 cells; experiment: HCV replicon FRET assay; type: cell-based, HCV strain 1b; conditions: Hepatitis C virus, Huh-7; HCV replicon cell assay; read-out: Activity Range (EC50)
Source text: An HCV replicon whole cell system was established as described by Lohmann V, Korner F, Koch J, Herian U, Theilmann L, Bartenschlager R., Science 285(5424):110-3 (1999). This system enabled us to evaluate the effects of our HCV Protease compounds on HCV RNA replication. Briefly, using the HCV strain 1b sequence described in the Lohmann paper (Assession number: AJ238799), an HCV cDNA was synthesized by Operon Technologies, Inc. (Alameda, Calif.), and the full-length replicon was then assembled in plasmid pGem9zf(+) (Promega, Madison, Wis.) using standard molecular biology techniques. The replicon consists of (i) the HCV 5′ UTR fused to the first 12 amino acids of the capsid protein, (ii) the neomycin phosphotransferase gene (neo), (iii) the IRES from encephalomyocarditis virus (EMCV), and (iv) HCV NS3 to NS5B genes and the HCV 3′ UTR. Plasmid DNAs were linearized with ScaI and RNA transcripts were synthesized in vitro using the T7 MegaScript transcription kit (Ambion, Austin, Tex.) according to manufacturer's directions. In vitro transcripts of the cDNA were transfected into the human hepatoma cell line, HUH-7. […] Resulting cell lines were characterized for positive and negative strand RNA production and protein production over time.
The HCV replicon FRET assay was developed to monitor the inhibitory effects of compounds described in the disclosure on HCV viral replication. HUH-7 cells, constitutively expressing the HCV replicon, were grown in Dulbecco's Modified Eagle Media (DMEM) (Gibco-BRL) containing 10% Fetal calf serum (FCS) (Sigma) and 1 mg/ml G418 (Gibco-BRL). Cells were seeded the night before (1.5×10^4 cells/well) in 96-well tissue-culture sterile plates. Compound and no compound controls were prepared in DMEM containing 4% FCS, 1:100 Penicillin/Streptomysin (Gibco-BRL), 1:100 L-glutamine and 5% DMSO in the dilution plate (0.5% DMSO final concentration in the assay). Compound/DMSO mixes were added to the cells and incubated for 4 days at 37° C. After 4 days, cells were first assessed for cytotoxicity using alamar Blue (Trek Diagnotstic Systems) for a CC50 reading. The toxicity of compound (CC50) was determined by adding 1/10th volume of alamar Blue to the media incubating the cells. After 4 h, the fluorescence signal from each well was read, with an excitation wavelength at 530 nm and an emission wavelength of 580 nm, using the Cytofluor Series 4000 (Perspective Biosystems). Plates were then rinsed thoroughly with Phosphate-Buffered Saline (PBS) (3 times 150 μl). The cells were lysed with 25 μl of a lysis assay reagent containing an HCV protease substrate (5× cell Luciferase cell culture lysis reagent (Promega #E153A) diluted to 1× with distilled water, NaCl added to 150 mM final, the FRET peptide substrate (as described for the enzyme assay above) diluted to 10 μM final from a 2 mM stock in 100% DMSO. […]. The plate was then placed into the Cytofluor 4000 instrument which had been set to 340 nm excitation/490 nm emission, automatic mode for 21 cycles and the plate read in a kinetic mode. EC50 determinations were carried out as described for the IC50 determinations.

T1 sequence (P27958 1027-1657, change not shown, one chain of several): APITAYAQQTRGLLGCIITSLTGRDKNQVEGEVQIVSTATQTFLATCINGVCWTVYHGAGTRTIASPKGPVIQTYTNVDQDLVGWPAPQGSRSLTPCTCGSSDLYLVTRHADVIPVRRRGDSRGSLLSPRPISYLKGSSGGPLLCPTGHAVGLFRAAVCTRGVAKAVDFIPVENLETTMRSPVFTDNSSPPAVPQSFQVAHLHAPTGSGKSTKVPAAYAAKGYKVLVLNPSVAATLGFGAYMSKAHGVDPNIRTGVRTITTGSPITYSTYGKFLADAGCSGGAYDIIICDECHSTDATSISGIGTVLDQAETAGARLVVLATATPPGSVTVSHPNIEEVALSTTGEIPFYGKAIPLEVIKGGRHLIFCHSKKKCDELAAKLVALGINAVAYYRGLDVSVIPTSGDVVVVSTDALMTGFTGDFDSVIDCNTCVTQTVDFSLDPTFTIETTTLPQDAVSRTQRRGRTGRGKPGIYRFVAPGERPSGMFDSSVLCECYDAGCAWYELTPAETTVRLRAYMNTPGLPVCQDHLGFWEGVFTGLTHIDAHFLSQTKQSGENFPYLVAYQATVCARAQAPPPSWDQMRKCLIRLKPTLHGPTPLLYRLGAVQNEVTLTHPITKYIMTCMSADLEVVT

SMILES: C=C[C@@H]1C[C@]1(NC(=O)[C@@H]1C[C@@H](c2ccccc2)CN1C(=O)[C@@H](NC(=O)OC(C)(C)C)C(C)(C)C)C(=O)NS(=O)(=O)C1CC1 [Compound 1]
- IC50 [1]: 100 to 1000 nM
- EC50 [2]: 1 to 10 µM

SMILES: C=C[C@@H]1C[C@]1(NC(=O)[C@@H]1C[C@@H](Cc2ccccc2)CN1C(=O)[C@@H](NC(=O)OC(C)(C)C)C(C)(C)C)C(=O)NS(=O)(=O)C1CC1 [Compound 2]
- IC50 [1]: > 1000 nM
- EC50 [2]: > 10 µM

SMILES: C=C[C@@H]1C[C@]1(NC(=O)[C@@H]1C[C@@](O)(c2ccccc2)CN1C(=O)[C@@H](NC(=O)OC(C)(C)C)C(C)(C)C)C(=O)NS(=O)(=O)C1CC1 [Compound 4]
- IC50 [1]: 100 to 1000 nM
- EC50 [2]: 1 to 10 µM

SMILES: C=C[C@@H]1C[C@]1(NC(=O)[C@@H]1C[C@@](O)(c2ccc3ccccc3c2)CN1C(=O)[C@@H](NC(=O)OC(C)(C)C)C(C)(C)C)C(=O)NS(=O)(=O)C1CC1 [Compound 5]
- IC50 [1]: 1 to 100 nM
- EC50 [2]: 0.01 to 1 µM

SMILES: C=C[C@@H]1C[C@]1(NC(=O)[C@@H]1C[C@@](O)(c2ccc(F)cc2)CN1C(=O)[C@@H](NC(=O)OC(C)(C)C)C(C)(C)C)C(=O)NS(=O)(=O)C1CC1 [Compound 6]
- IC50 [1]: 100 to 1000 nM
- EC50 [2]: 1 to 10 µM

SMILES: C=C[C@@H]1C[C@]1(NC(=O)[C@@H]1C[C@@](O)(c2ccc(OC)cc2)CN1C(=O)[C@@H](NC(=O)OC(C)(C)C)C(C)(C)C)C(=O)NS(=O)(=O)C1CC1 [Compound 7]
- IC50 [1]: 100 to 1000 nM
- EC50 [2]: 1 to 10 µM

SMILES: C=C[C@@H]1C[C@]1(NC(=O)[C@@H]1C[C@@](O)(c2cccc(-c3ccc(OC)cc3)c2)CN1C(=O)[C@@H](NC(=O)OC(C)(C)C)C(C)(C)C)C(=O)NS(=O)(=O)C1CC1 [Compound 8]
- IC50 [1]: 100 to 1000 nM
- EC50 [2]: 1 to 10 µM

SMILES: C=CC[C@]1(O)C[C@@H](C(=O)N[C@]2(C(=O)NS(=O)(=O)C3CC3)C[C@H]2C=C)N(C(=O)[C@@H](NC(=O)OC(C)(C)C)C(C)(C)C)C1 [Compound 9]
- IC50 [1]: > 1000 nM
- EC50 [2]: > 10 µM

SMILES: C=C[C@@H]1C[C@]1(NC(=O)[C@@H]1C[C@@](O)(c2cccc(F)c2)CN1C(=O)[C@@H](NC(=O)OC(C)(C)C)C(C)(C)C)C(=O)NS(=O)(=O)C1CC1 [Compound 10]
- IC50 [1]: 1 to 100 nM
- EC50 [2]: 1 to 10 µM

SMILES: C=C[C@@H]1C[C@]1(NC(=O)[C@@H]1C[C@@](O)(c2cccc(OC)c2)CN1C(=O)[C@@H](NC(=O)OC(C)(C)C)C(C)(C)C)C(=O)NS(=O)(=O)C1CC1 [Compound 11]
- IC50 [1]: 1 to 100 nM
- EC50 [2]: 1 to 10 µM

SMILES: C=C[C@@H]1C[C@]1(NC(=O)[C@@H]1C[C@@](O)(c2cccc(Cl)c2)CN1C(=O)[C@@H](NC(=O)OC(C)(C)C)C(C)(C)C)C(=O)NS(=O)(=O)C1CC1 [Compound 12]
- IC50 [1]: 1 to 100 nM
- EC50 [2]: 1 to 10 µM

SMILES: C=C[C@@H]1C[C@]1(NC(=O)[C@@H]1C[C@@](O)(c2cccc(C)c2)CN1C(=O)[C@@H](NC(=O)OC(C)(C)C)C(C)(C)C)C(=O)NS(=O)(=O)C1CC1 [Compound 13]
- IC50 [1]: 1 to 100 nM
- EC50 [2]: 1 to 10 µM

SMILES: C=C[C@@H]1C[C@]1(NC(=O)[C@@H]1C[C@@](O)(c2cccc(C(C)C)c2)CN1C(=O)[C@@H](NC(=O)OC(C)(C)C)C(C)(C)C)C(=O)NS(=O)(=O)C1CC1 [Compound 14]
- IC50 [1]: 100 to 1000 nM
- EC50 [2]: 1 to 10 µM

SMILES: C=C[C@@H]1C[C@]1(NC(=O)[C@@H]1C[C@@](O)(c2cccc(OC(C)C)c2)CN1C(=O)[C@@H](NC(=O)OC(C)(C)C)C(C)(C)C)C(=O)NS(=O)(=O)C1CC1 [Compound 15]
- IC50 [1]: 100 to 1000 nM
- EC50 [2]: 1 to 10 µM

SMILES: C=C[C@@H]1C[C@]1(NC(=O)[C@@H]1C[C@@](O)(c2cccc(N(C)C)c2)CN1C(=O)[C@@H](NC(=O)OC(C)(C)C)C(C)(C)C)C(=O)NS(=O)(=O)C1CC1 [Compound 16]
- IC50 [1]: 100 to 1000 nM
- EC50 [2]: > 10 µM

SMILES: C=C[C@@H]1C[C@]1(NC(=O)[C@@H]1C[C@@](O)(c2cccc(CN3CCCC3)c2)CN1C(=O)[C@@H](NC(=O)OC(C)(C)C)C(C)(C)C)C(=O)NS(=O)(=O)C1CC1 [Compound 17]
- IC50 [1]: 100 to 1000 nM
- EC50 [2]: > 10 µM

SMILES: C=C[C@@H]1C[C@]1(NC(=O)[C@@H]1C[C@@](O)(c2cccc(CN3CCCCC3)c2)CN1C(=O)[C@@H](NC(=O)OC(C)(C)C)C(C)(C)C)C(=O)NS(=O)(=O)C1CC1 [Compound 18]
- IC50 [1]: 100 to 1000 nM
- EC50 [2]: > 10 µM

SMILES: C=C[C@@H]1C[C@]1(NC(=O)[C@@H]1C[C@@](O)(c2cccc(CN3CCOCC3)c2)CN1C(=O)[C@@H](NC(=O)OC(C)(C)C)C(C)(C)C)C(=O)NS(=O)(=O)C1CC1 [Compound 19]
- IC50 [1]: 100 to 1000 nM
- EC50 [2]: > 10 µM

SMILES: C=C[C@@H]1C[C@]1(NC(=O)[C@@H]1C[C@@](O)(c2ccccc2CN2CCOCC2)CN1C(=O)[C@@H](NC(=O)OC(C)(C)C)C(C)(C)C)C(=O)NS(=O)(=O)C1CC1 [Compound 20]
- IC50 [1]: 100 to 1000 nM
- EC50 [2]: 1 to 10 µM

SMILES: C=C[C@@H]1C[C@]1(NC(=O)[C@@H]1C[C@@](O)(c2cc(C)cc(C)c2)CN1C(=O)[C@@H](NC(=O)OC(C)(C)C)C(C)(C)C)C(=O)NS(=O)(=O)C1CC1 [Compound 21]
- IC50 [1]: 1 to 100 nM
- EC50 [2]: 1 to 10 µM
